According to patent publication US12285407B2, “Bis-indolylmethane derivatives and uses thereof” (The University of The West Indies, priority 2018, dated 2025):

Experiments:
[1] = test system: Bacillus cereus ATCC 14579; experiment: Broth microdilution MIC of SP-BIMs; type: cell-based; conditions: ATCC14579, SP-BIM alone, read-out: MIC Bacillus cereus ATCC 14579
[2] = test system: Salmonella typhimurium ATCC 14028; experiment: Broth microdilution MIC of SP-BIMs; type: cell-based; conditions: Salmonella enterica, read-out: MIC Salmonella tvpkimurium ATCC 14028
Excerpt: Reference microorganisms used in this study included: Bacillus cereus (American Type Culture Collection (ATCC) No. 14579), Streptococcus pyogenes (ATCC No. 19615), Staphylococcus aureus (ATCC No. 12600), Enterococcus faecium (ATCC No. 19434), Corynebacterium diphtheriae (ATCC No. 27010), Escherichia coli (ATCC No. 35218), Salmonella typhimurium (ATCC No. 14028), Pseudomonas aeruginosa (ATCC No. 27853), Klebsiella pneumoniae (ATCC No. 49472), and Candida albicans (ATCC No. 22972).
Prior to each experiment, cultures were streaked onto clean BHI agar plates and incubated at 35° C. for 24 hours. Colonies of the respective cultures were selected and inoculated in phosphate buffer saline (pH 7.5) to a 0.5 McFarland turbidity standard (equivalent to 10^8 CFU mL^−1). The bacterial suspension was then diluted 1:100 in cation adjusted Mueller Hinton Broth (ca-MHB) (Oxoid Ltd, Basingstoke, Hampshire, England).
Stock solutions (50 mg mL^−1) of the SP-BIM test compounds were prepared in DMSO and stored at 4° C. Working preparations of each compound was made up to 1 mg/mL in sterile deionized water with a final DMSO concentration of 10%.
To assess the antibiotic properties of the library of SP-BIMs, the broth microdilution assay was performed in 96-well microplates according to the Clinical and Laboratory Standards Institute 2014 Guidelines (CLSI 2014). The broth microdilution assay was used to determine the minimum inhibitory concentration (MIC). […] Bacterial cells (˜10^6 CFU mL^−1) were inoculated into cation adjusted-Mueller Hinton broth containing the test compound in a twofold serial dilution ranging between 250 μg mL^−1 and 0.02 μg mL^−1. Plates were incubated at 35° C. for 18 hours after which 50 μL of 5% resazurin solution was added to each well. Resazurin is a blue dye which, upon reduction by living cells, turns to a pink resorufin product. Plates were shaken for 1 hour after the addition of the dye. The MIC was recorded as the well with the lowest concentration of test compound where no color change was observed.

[3] = test system: Streptococcus pneumoniae; experiment: Adjuvant broth microdilution (antibiotic MIC with SP-BIM at 50 μg/mL); type: cell-based; conditions: Streptococcus pneumoniae, Streptococcus pneumonia, SP-BIM at 50 μg mL^−1
[4] = test system: Corynebacterium diphtheriae ATCC 27010; experiment: Broth microdilution MIC of SP-BIMs; type: cell-based; conditions: ATCC27010, SP-BIM alone, read-out: MIC Corynebacterium diphtheriae ATCC 27010
[5] = test system: Escherichia coli ATCC 35218; experiment: Broth microdilution MIC of SP-BIMs; type: cell-based; conditions: ATCC35218, SP-BIM alone, read-out: MIC Escherichia coli ATCC 35218
[6] = test system: Candida albicans ATCC 22972; experiment: Broth microdilution MIC of SP-BIMs; type: cell-based; conditions: ATCC22972, SP-BIM alone, read-out: MIC Candida albicans ATCC 22972
[7] = test system: Staphylococcus aureus ATCC 12600; experiment: Broth microdilution MIC of SP-BIMs; type: cell-based; conditions: ATCC12600, SP-BIM alone, read-out: MIC Staphylococcus aureus ATCC 12600
[8] = test system: Klebsiella pneumoniae ATCC 49472; experiment: Broth microdilution MIC of SP-BIMs; type: cell-based; conditions: ATCC49472, SP-BIM alone, read-out: MIC Klebisella pneumoniae ATCC 49472
[9] = test system: Gram-negative bacteria; experiment: Adjuvant broth microdilution; type: cell-based; conditions: SP-BIM at 50 μg mL^−1
Description: To each well, the SP-BIM to be tested was added to a final concentration of 50 μg mL^−1. […] SP-BIMs were assessed as potential adjuvants based on their ability to reduce the MIC of the antibiotic against respective pathogen.

[10] = test system: Pseudomonas aeruginosa ATCC 27853; experiment: Broth microdilution MIC of SP-BIMs; type: cell-based; conditions: ATCC27853, SP-BIM alone, read-out: MIC Pseudomonas aeruginosa ATCC 27853
[11] = test system: Streptococcus pyogenes ATCC 19615; experiment: Broth microdilution MIC of SP-BIMs; type: cell-based; conditions: ATCC19615, SP-BIM alone, read-out: MIC Streptococcus pyogenes ATCC 19615
[12] = test system: Enterococcus faecium ATCC 19434; experiment: Broth microdilution MIC of SP-BIMs; type: cell-based; conditions: ATCC19434, SP-BIM alone, read-out: MIC Enterococcus faecium ATCC 19434
[13] = test system: sheep erythrocyte; experiment: Hemotoxicity (hemolysis assay); type: cell-based; conditions: 2% sheep erythrocyte solution; SP-BIMs 6, 11 and 18 at concentrations between 125-16 μg mL^−1
Description: Hemotoxicity of the SP-BIMs were assessed following Wauford, “Hemolysis Assay”, protocols.io/view/hemolysis-assay-fxkbpkw (2016). Briefly, twofold serial dilutions of each test SP-BIM were added to 2% sheep erythrocyte solution and incubated for 30 minutes at 37° C. Samples were centrifuged at 2500 g for 5 minutes and the absorbance of the supernatants measured at 541 nm. Values were represented as percent hemolysis using freeze thaw cells as 100% lysis.

[14] = test system: Bacillus cereus; experiment: Checkerboard synergy (FICI) of antibiotics with SP-BIM; type: cell-based; conditions: SP-BIM 9 alone, one value per antibiotic's checkerboard, read-out: MIC SP-BIM 9 only
[15] = test system: MRSA HS 10132; experiment: Systemic non-lethal MRSA infection in mice (organ MRSA load); type: in vivo
[16] = test system: Staphylococcus aureus; experiment: Checkerboard synergy (FICI) of antibiotics with SP-BIM; type: cell-based
[17] = test system: Escherichia coli; experiment: as above; conditions: read-out: MIC SP-BIM 9 only, Escherichia coli, SP-BIM 9 alone, one value per antibiotic's checkerboard
[18] = test system: Klebsiella pneumoniae; experiment: as above; type: cell-based; conditions: SP-BIM 9 alone, one value per antibiotic's checkerboard, read-out: MIC SP-BIM 9 only
[19] = test system: Streptococcus pneumoniae; experiment: as above; type: cell-based; conditions: Streptococcus pneumoniae
[20] = test system: reference pathogen strains; experiment: Checkerboard synergy study, summary over pathogens; type: cell-based; conditions: Gram-positive pathogens
[21] = test system: Enterococcus faecium; experiment: Checkerboard synergy (FICI) of antibiotics with SP-BIM; type: cell-based
[22] = read-out: MIC of Kanamvcin with SP-BIM
[23] = read-out: MIC of Vancomvcin with SP-BIM
[24] = ampicillin and SP-BIM 9 at 5 mg kg^−1
[25] = ampicillin and SP-BIM 9 at 10 mg kg^−1
[26] = MRSA, checkerboard with SP-BIM 9

## O=Cc1cccc(C(c2c[nH]c3ccccc23)c2c[nH]c3ccccc23)c1 [SP-BIM 6, 3-(di(1H-indol-3-yl)methyl)benzaldehyde]
[1]
  MIC: > 250 µg/mL
[2]
  MIC: 250 µg/mL
[3]; [22]
  MIC: 4 µg/mL
[3]; [23]
  MIC: 0.5 µg/mL
[4]
  MIC: > 250 µg/mL
[5]
  MIC: > 250 µg/mL
[6]
  MIC: 250 µg/mL
[7]
  MIC: > 250 µg/mL
[8]
  MIC: > 250 µg/mL
[9]
  potentiating activity for Gram-negative bacteria: No potentiating activity was observed
[10]
  MIC: 250 µg/mL
[11]
  MIC: > 250 µg/mL
[12]
  MIC: > 250 µg/mL
[13]
  hemotoxicity: very hemotoxic

## Oc1cccc(C(c2c[nH]c3ccccc23)c2c[nH]c3ccccc23)c1 [SP-BIM 9, 3-(di(1H-indol-3-yl)methyl)phenol]
[1]
  MIC: > 250 µg/mL
[2]
  MIC: 250 µg/mL
[14]
  MIC: > 250 µg/mL
[3]; [22]
  MIC: 4 µg/mL
[3]; [23]
  MIC: 0.2 µg/mL
[15]; SP-BIM 9 only 5 mg kg^−1
  MRSA counts in the liver: 3911 CFU g^−1
  MRSA load in the spleen: 7327 CFU g^−1
[15]; SP-BIM 9 only 10 mg kg^−1
  MRSA counts in the liver: 2861 CFU g^−1
  MRSA load in the spleen: 5800 CFU g^−1
[15]; [24]
  MRSA counts in the liver: 167 CFU g^−1
  MRSA load in the spleen: 288 CFU g^−1
[15]; [25]
  MRSA counts in the liver: 189 CFU g^−1
  MRSA load in the spleen: 211 CFU g^−1
[4]
  MIC: > 250 µg/mL
[16]; MRSA, checkerboard
  MIC of aztreonam in combination with 32 μg mL^−1 of SP-BIM 9: 8 µg/mL
[16]; [26]
  effect on MIC of trimethoprim: an increase in the MIC was observed
  reduction of MICs of all the antibiotics except trimethoprim: at least 4 fold
[16]; Staphylococcus aureus, SP-BIM 9 alone, one value per antibiotic's checkerboard, read-out: MIC SP-BIM 9 only
  MIC: > 250 µg/mL
[5]
  MIC: > 250 µg/mL
[17]
  MIC: ≥ 250 µg/mL
[18]
  MIC: ≥ 250 µg/mL
[19]; Streptococcus pneumonia (title: Streptococcus pyogenes), SP-BIM 9 alone, one value per antibiotic's checkerboard, read-out: MIC SP-BIM 9 only
  MIC: > 250 µg/mL
[19]; checkerboard with SP-BIM 9
  effect on MIC of erythromycin: no effect was observed
  lowering of the MIC of the antibiotics: at least 4 fold
[6]
  MIC: 250 µg/mL
[7]
  MIC: > 250 µg/mL
[8]
  MIC: > 250 µg/mL
[20]
  FICI with most of the antibiotics: ≤ 0.5
[10]
  MIC: 250 µg/mL
[11]
  MIC: > 250 µg/mL
[21]; Enterococcus faecium strain highly resistant to vancomycin
  MIC of vancomycin with 63 μg mL^−1 SP-BIM 9: reduced to susceptible levels
[21]; Enterococcus faecium, SP-BIM 9 alone, one value per antibiotic's checkerboard, read-out: MIC SP-BIM 9 only
  MIC: ≥ 250 µg/mL
[12]
  MIC: > 250 µg/mL

## Nc1ccc(C(c2c[nH]c3ccccc23)c2c[nH]c3ccccc23)cc1 [SP-BIM 10, 4-(di(1H-indol-3-yl)methyl)aniline]
[1]
  MIC: > 250 µg/mL
[2]
  MIC: 250 µg/mL
[3]; [22]
  MIC: 4 µg/mL
[3]; [23]
  MIC: 0.5 µg/mL
[4]
  MIC: > 250 µg/mL
[5]
  MIC: > 250 µg/mL
[6]
  MIC: 250 µg/mL
[7]
  MIC: > 250 µg/mL
[8]
  MIC: > 250 µg/mL
[9]
  potentiating activity for Gram-negative bacteria: No potentiating activity was observed
[10]
  MIC: 250 µg/mL
[11]
  MIC: > 250 µg/mL
[12]
  MIC: > 250 µg/mL

## Oc1ccccc1C(c1c[nH]c2ccccc12)c1c[nH]c2ccccc12 [SP-BIM 11, bis(indol-3-yl)-2-hydroxyphenylmethane]
[1]
  MIC: > 250 µg/mL
[2]
  MIC: 250 µg/mL
[3]; [22]
  MIC: 125 µg/mL
[3]; [23]
  MIC: 1 µg/mL
[4]
  MIC: > 250 µg/mL
[5]
  MIC: > 250 µg/mL
[6]
  MIC: 250 µg/mL
[7]
  MIC: > 250 µg/mL
[8]
  MIC: > 250 µg/mL
[10]
  MIC: 250 µg/mL
[11]
  MIC: > 250 µg/mL
[12]
  MIC: > 250 µg/mL
[13]
  hemotoxicity: very hemotoxic

## Oc1cc(Br)ccc1C(c1c[nH]c2ccccc12)c1c[nH]c2ccccc12 [SP-BIM 15, 5-bromo-2-(di(1H-indol-3-yl)methyl)phenol]
[1]
  MIC: 125 µg/mL
[2]
  MIC: 250 µg/mL
[3]; [22]
  MIC: 4 µg/mL
[3]; [23]
  MIC: 0.2 µg/mL
[4]
  MIC: > 250 µg/mL
[5]
  MIC: > 250 µg/mL
[6]
  MIC: 250 µg/mL
[7]
  MIC: > 250 µg/mL
[8]
  MIC: > 250 µg/mL
[9]
  potentiating activity for Gram-negative bacteria: No potentiating activity was observed
[10]
  MIC: 250 µg/mL
[11]
  MIC: 125 µg/mL
[12]
  MIC: 125 µg/mL

## COc1ccc(C(c2c[nH]c3ccccc23)c2c[nH]c3ccccc23)cc1 [SP-BIM 18, bis(indol-3-yl)-4-methoxyphenylmethane]
[1]
  MIC: > 250 µg/mL
[2]
  MIC: 250 µg/mL
[3]; [22]
  MIC: 125 µg/mL
[3]; [23]
  MIC: 1 µg/mL
[4]
  MIC: > 250 µg/mL
[5]
  MIC: > 250 µg/mL
[6]
  MIC: 250 µg/mL
[7]
  MIC: > 250 µg/mL
[8]
  MIC: > 250 µg/mL
[10]
  MIC: 250 µg/mL
[11]
  MIC: > 250 µg/mL
[12]
  MIC: > 250 µg/mL
[13]
  hemotoxicity: very hemotoxic
